Data set [1] deals with RBL cells. The data set is described as follows: Cell viability by live-dead staining (cytotoxicity), flow cytometry. The following applies: Rattus norvegicus, RBL, cell viability via live/dead staining, 48-65 h, read-out: EC50 Toxicity. It counts as cell-based, Rat. In outline: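 RBL cells with coronin 1 promoter-GFP, mixed 1:1 with CMV promoter-RFP RBL cells, exposed to compound 48-65 h. Flow cytometry read RFP fluorescence for non-specific promoter inhibition and live-dead staining for cytotoxicity. EC50 values derived; cycloheximide positive control, DMSO negative.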
(In general: Flow cytometry measures light scatter and fluorescence of single cells or particles in a stream.)

For data set [2], the system named is coronin 1. The data set is described as follows: Western blotting of coronin 1 protein levels in RBL cells. The data set is classed as cell-based, Rat. Conditions: RBL cell lines, chemiluminescence imager. The method, then:
buffer with 0.2% SDS containing protease and phosphatase inhibitors (Roche) at 4° C., followed by protein determination (BCA, Pierce) and SDS-PAGE with equal protein amounts transferred onto nitrocellulose and probed using antibodies against the indicated proteins (actin and coronin 1) followed by HRP-labeled secondary antibodies and developed using an enhanced chemi-luminescence imager (Fuji) (FIG. 3C).

Data set [3] can be described thus: In vivo toxicity: hematological parameters (ADVIA) and body weight. Conditions: 150 mg/kg/body weight, BD, IP, six-day administration. The method, then:
Coronin 1 expression inhibitor (compound 11) was initially dissolved in DMSO at 100 mg/ml concentration. In parallel, a 50:50 solution of miglyol 812 and kolliphor EL (M+K) was prepared. Coronin 1 expression inhibitor: M+K was mixed at a ratio of 30:70 and vortexed for 5 minutes to make a homogenous suspension such that a final concentration of 30 mg/ml was obtained. 100 μl/mouse was subsequently administered either intraperitoneally or subcutaneously using an insulin syringe. The mice used for the study were separated into age and sex matched cohorts, weighed prior to start of the study and regularly monitored for body weight, behavioural changes, fur changes, faecal consistency and urine colour. […]

Data set [4] relates to RBL cells. The data set is described as follows: In vitro toxicity, MTT assay. It counts as cell-based, Rat. The method, then:
MTT assay was performed with 3-(4,5-dimethylthiazol-2-yl)-2,5-diphenyltetra-zolium bromide (MTT, Cayman chemicals) using the manufacturers protocol. In brief, RBL cells pretreated with coronin 1 expression inhibitor or vehicle controls were reseeded and cultured in a 96-well plate at a concentration of […] cells/ml of culture media, 10 μL of MTT was added and incubated for 4 h at 37° C. At the end, culture supernatant was removed and the formazan crystals were dissolved with 100 μl of crystal dissolving solution and the absorbance measured at 570 nm using a plate reader (Synergy) (FIG. 5B).

Data set [5] has as its system coronin 1. The data set is described as follows: Coronin 1 Western blotting in human PBMCs. It counts as cell-based. Conditions: 10 μg/ml, 5 days. The method, then: buffer with 0.2% SDS containing protease and phosphatase inhibitors (Roche) at 4° C., followed by protein determination (BCA, Pierce) and SDS-PAGE, transferred onto nitrocellulose and probed using antibodies against the indicated proteins (actin and coronin 1) followed by HRP-labeled secondary antibodies and developed using an enhanced chemi-luminescence imager (Fuji) (FIG. 8A).
Heparinized or EDTA treated blood or buffy coat from healthy volunteers were enriched for monocytes using the standard Histopaque 1.077 gradient centrifugation methodology. Post enrichment, the monocyte fraction was washed extensively with plain RPMI and subsequently counted and seeded in 96 well plate at a density of 0.2 million cells/well in a volume of 200 μl RPMI-1640 (Sigma) containing 1× penicillin and streptomycin (Gibco), 2 mM L-glutamine (Gibco), 10% heat inactivated FCS (PAA) and heparin 50 units/ml along with the vehicle (DMSO) or coronin 1 inhibitor at indicated concentrations. Cells were incubated in a 37° C. humidified incubator with a 5% CO2 for five days with the expression inhibitor and vehicle replenished in between at 48 hours post seeding by replacing 50% of the media. […]
(In general: In western blotting, separated proteins are transferred to a membrane and probed.)

The next data set has as its system coronin 1 promoter. The data set is described as follows: Fluorescence-based screening assay: coronin 1 promoter driven GFP in RBL cells (microplate reader / microscopy). The data set is classed as cell-based. Conditions: 48 h. The method, then: The murine coronin 1 promoter sequences of SEQ ID NO: 1-6 were each cloned into a plasmid lacking a promoter (promoterless) but containing a destabilized Green Fluorescence Protein (GFP) cassette. Rat Basophil Leukemia (RBL) cells were transfected with the plasmids, stable GFP expressing cells were enriched, incubated with various compounds and assessed for coronin 1 promoter inhibition by assessing green fluorescence values (FIG. 2).
The plasmids were independently transfected into immune cells (Rat basophil Leukemia, RBL cells) to generate green and red fluorescent RBL cells that were subsequently enriched by means of flow cytometry. These cells were then mixed in equal ratio (1:1) and incubated in a 96 well plate at 100,000 cells/well in a volume of 200 μl of phenol red free RPMI supplemented with 8% fetal calf serum, L-glutamate and antibiotics (penicillin, […]) from available chemical libraries. At defined time points (8 h, 24 h and 48 h), the GFP and RFP fluorescence was measured using a 96 well microplate reader (Synergy, BioTek Instruments). […] Selected compounds show different levels of modulation of coronin 1 promoter driven GFP and CMV promoter driven RFP fluorescence. GFP and RFP fluorescence were analyzed with a microplate reader upon incubation with the top coronin 1 promoter inhibiting compounds. Shown are percentage of GFP reduction (left column) and percentage of RFP reduction (right column) for the compounds at 5 μg/ml concentration at 48 h. Cycloheximide (CHX) serves as positive control whereas media and DMSO serve as negative controls. […] Cells were imaged using a fluorescence microscope to validate fluorescence inhibition (FIG. 3A) and as well assess morphology and viability (in addition to GFP down regulation confirmation). In addition, quantitative Polymerase Chain Reaction (qPCR) for coronin 1 mRNA transcripts reveal reduction with compound 11 (FIG. 3B). The primers used for the qPCR on RBL cells are listed below as follows;

Each structure is given as a SMILES string. “Also recorded” adds a separate entry of the source. Bounds are passed on as bounds.

One may read the EC50 as the concentration that produces a half-maximal response. As for `COC(=O)C1=C(C)NC2=C(C(=O)CC(c3ccccc3OC)C2)C1c1cccc(O)c1` (stereo not shown) [Comp. 11, methyl-4-(3-hydroxyphenyl)-7-(2-methoxyphenyl)-2-methyl-5-oxo-1,4,5,6,7,8-hexahydro-3-quinolinecarboxylate], in the data set with RBL cells [1], the EC50 is > 9 µM. Further, the “coronin 1 depletion (Western blotting, protein level)” value in the data set on coronin 1 [2] is on record as ~80%. Further, the “in vivo toxicity: hematological parameters (RBC, WBC, platelet counts, hemoglobin), body weight” value in data set [3] was “did not reveal any potential toxicity; also recorded: good safety and tolerability”. For the same compound, the “in vitro toxicity by MTT assay” value in the data set with RBL cells [4] is reported as “minimal toxicity”. Besides, the “coronin 1 depletion in human PBMCs (Western blotting)” value with coronin 1 [5] is listed as “coronin 1 depletion”. Moreover, the “coronin 1 promoter driven GFP, imaged by microscope” value with coronin 1 promoter (10 μg/ml, confocal microscope) was “selectively reduce GFP values; also recorded: selective reduction”. Also, the activity at 5 µg/mL in the data set with coronin 1 promoter (RBL, 5 μg/ml, microplate reader, DMSO = 100, read-out: GFP values (%)) was determined as 35%.

Values taken from patent US20260102387A1, “IMMUNOSUPPRESSIVE COMPOUNDS” (UNIVERSITÄT BASEL, priority 2022, published 2026).
